This is an account of results in ChEMBL document CHEMBL3991601, “The target landscape of clinical kinase drugs” (Science, 2017).

The target in experiment [1] is T1, Mitogen-activated protein kinase kinase kinase 3 (Homo sapiens, UniProt Q99759).
T1 sequence (Q99759 whole entry): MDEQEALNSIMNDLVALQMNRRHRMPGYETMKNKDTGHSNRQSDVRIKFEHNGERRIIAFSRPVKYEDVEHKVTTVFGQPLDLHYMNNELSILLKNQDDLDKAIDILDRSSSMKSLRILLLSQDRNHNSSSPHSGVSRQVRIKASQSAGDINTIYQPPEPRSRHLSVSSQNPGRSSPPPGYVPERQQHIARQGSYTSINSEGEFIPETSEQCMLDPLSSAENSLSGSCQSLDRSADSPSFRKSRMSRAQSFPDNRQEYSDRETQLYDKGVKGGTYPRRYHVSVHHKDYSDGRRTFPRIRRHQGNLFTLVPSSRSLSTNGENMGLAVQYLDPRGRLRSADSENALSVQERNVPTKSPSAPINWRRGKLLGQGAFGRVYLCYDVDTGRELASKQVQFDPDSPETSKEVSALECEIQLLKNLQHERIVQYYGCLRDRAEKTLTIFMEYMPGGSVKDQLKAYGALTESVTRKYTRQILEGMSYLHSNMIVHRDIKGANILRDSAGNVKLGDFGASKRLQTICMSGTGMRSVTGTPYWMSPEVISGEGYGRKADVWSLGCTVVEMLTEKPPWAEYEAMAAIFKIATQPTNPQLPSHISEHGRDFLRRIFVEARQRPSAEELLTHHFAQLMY

Experiment [2] has as its target T2, Mitogen-activated protein kinase kinase kinase kinase 3 (Homo sapiens, UniProt Q8IVH8).
T2 sequence (Q8IVH8 whole entry): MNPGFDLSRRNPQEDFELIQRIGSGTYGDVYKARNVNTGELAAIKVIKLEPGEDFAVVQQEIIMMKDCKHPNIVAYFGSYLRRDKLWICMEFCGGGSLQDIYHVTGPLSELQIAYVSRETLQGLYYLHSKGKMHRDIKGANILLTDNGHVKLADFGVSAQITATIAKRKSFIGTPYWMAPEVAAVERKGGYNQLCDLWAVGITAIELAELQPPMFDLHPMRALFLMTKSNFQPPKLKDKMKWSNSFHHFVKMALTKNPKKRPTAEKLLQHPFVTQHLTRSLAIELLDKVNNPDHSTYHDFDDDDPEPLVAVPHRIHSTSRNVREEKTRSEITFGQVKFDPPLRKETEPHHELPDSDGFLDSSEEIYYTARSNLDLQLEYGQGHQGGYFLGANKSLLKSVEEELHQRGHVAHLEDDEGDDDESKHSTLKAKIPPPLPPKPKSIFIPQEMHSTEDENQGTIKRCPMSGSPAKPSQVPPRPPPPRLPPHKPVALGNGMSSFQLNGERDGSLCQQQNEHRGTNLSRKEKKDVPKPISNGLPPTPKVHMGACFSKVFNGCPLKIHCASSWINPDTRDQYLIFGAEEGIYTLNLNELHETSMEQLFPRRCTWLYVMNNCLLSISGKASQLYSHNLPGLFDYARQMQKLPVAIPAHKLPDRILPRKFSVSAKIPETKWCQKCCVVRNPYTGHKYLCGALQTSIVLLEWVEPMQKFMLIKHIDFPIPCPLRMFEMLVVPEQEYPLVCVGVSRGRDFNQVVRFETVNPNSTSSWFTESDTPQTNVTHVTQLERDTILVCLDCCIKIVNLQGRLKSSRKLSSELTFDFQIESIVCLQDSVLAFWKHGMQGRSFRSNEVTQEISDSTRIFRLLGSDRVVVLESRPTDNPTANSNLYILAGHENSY

Experiment [3] deals with Receptor-interacting serine/threonine-protein kinase 3 (Homo sapiens, UniProt Q9Y572).
Chain of Receptor-interacting serine/threonine-protein kinase 3 (Q9Y572 whole entry): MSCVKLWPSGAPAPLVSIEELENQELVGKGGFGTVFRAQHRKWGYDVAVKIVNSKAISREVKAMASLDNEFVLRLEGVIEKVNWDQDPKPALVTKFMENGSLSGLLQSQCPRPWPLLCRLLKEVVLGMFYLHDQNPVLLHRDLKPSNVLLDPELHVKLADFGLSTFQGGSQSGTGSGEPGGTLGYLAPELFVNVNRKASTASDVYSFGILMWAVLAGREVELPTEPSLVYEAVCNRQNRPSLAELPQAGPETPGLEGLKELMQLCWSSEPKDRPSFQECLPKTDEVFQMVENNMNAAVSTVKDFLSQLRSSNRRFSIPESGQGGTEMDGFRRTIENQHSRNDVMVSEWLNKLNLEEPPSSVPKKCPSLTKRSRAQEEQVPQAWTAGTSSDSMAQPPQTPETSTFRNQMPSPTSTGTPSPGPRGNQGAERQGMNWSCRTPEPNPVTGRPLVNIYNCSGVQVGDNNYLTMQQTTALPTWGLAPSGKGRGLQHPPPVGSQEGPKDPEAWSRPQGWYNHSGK
The target in experiment [4] is T3, Tyrosine-protein kinase Tec (Homo sapiens, UniProt P42680).
T3 sequence (P42680 whole entry): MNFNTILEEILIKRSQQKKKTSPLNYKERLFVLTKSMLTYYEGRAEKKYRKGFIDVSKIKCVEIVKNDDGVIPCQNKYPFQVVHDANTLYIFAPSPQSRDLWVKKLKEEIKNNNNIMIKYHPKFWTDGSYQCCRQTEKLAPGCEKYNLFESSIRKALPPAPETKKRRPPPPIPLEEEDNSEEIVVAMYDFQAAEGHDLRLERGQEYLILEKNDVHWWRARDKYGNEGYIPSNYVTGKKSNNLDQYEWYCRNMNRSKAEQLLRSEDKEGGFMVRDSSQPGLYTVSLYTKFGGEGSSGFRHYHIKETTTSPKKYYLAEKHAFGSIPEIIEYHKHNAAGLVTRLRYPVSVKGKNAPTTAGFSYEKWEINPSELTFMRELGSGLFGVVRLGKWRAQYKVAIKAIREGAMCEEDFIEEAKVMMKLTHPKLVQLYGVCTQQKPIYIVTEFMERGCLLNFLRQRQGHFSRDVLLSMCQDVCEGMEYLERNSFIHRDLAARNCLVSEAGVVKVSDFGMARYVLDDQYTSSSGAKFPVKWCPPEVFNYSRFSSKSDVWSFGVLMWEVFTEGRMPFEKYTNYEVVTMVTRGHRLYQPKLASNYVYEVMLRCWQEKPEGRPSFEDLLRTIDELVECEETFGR

For experiment [5], the target named is Dual specificity testis-specific protein kinase 1 (Homo sapiens, UniProt Q15569).
Chain of Dual specificity testis-specific protein kinase 1 (Q15569 whole entry): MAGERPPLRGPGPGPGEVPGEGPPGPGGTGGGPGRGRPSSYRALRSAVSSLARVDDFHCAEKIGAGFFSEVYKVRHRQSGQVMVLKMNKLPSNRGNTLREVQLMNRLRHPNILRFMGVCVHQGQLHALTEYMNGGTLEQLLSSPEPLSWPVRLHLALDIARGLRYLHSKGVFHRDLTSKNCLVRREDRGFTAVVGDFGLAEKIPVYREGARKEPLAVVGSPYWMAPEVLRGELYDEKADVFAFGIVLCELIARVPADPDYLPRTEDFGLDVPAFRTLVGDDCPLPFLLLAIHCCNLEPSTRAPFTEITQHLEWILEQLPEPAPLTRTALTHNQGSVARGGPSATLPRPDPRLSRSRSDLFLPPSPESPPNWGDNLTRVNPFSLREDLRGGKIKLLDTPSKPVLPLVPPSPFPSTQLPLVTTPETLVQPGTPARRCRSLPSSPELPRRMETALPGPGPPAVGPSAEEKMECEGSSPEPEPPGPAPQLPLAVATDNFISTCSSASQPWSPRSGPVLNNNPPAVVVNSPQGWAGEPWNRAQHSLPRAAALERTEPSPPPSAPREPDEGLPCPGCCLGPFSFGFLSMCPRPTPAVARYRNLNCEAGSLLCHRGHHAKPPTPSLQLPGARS
Experiment [6] concerns the target T4, Tyrosine--tRNA ligase, cytoplasmic (Homo sapiens, UniProt P54577).
T4 sequence (P54577 whole entry): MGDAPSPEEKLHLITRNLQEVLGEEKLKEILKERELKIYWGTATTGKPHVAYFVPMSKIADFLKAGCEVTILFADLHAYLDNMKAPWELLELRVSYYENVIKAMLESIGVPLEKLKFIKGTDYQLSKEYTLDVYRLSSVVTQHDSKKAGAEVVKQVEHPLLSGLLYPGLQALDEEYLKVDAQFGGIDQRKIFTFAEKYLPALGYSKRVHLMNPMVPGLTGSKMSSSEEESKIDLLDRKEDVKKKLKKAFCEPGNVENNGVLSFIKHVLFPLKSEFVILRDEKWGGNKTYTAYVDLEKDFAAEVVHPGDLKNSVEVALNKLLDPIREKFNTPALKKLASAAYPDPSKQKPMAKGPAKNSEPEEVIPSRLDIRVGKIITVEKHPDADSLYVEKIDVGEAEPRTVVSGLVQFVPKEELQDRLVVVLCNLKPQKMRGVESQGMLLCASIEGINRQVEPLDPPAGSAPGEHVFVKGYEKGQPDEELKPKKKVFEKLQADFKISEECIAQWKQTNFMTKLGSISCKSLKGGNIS

Calls of active or inactive are those of the source. Rule as the data show it, for most assays here: actives have a measured Kd and inactives only a lower limit.

The Kd is the concentration at which binding is half-saturated.
Also: in the data inactive means no Kd found up to 30 µM.

In the case of `Cc1cccc(-c2nn3c(c2-c2ccnc4ccc(C(N)=O)cc24)CCC3)n1` [GALUNISERTIB], the Kd in experiment [1] was > 30 µM (inactive); in experiment [2], > 30 µM (inactive); in experiment [3], 0.011 µM (active); in experiment [4], > 30 µM (inactive); in experiment [5], > 30 µM (inactive); in experiment [6], > 30 µM (inactive).
As to `COc1ccc(S(=O)(=O)N(C(C)=O)c2ccccc2/C=C/c2cc[n+]([O-])cc2)cc1` [HMN-214], the Kd in experiment [1], in experiment [2], in experiment [3], in experiment [4], in experiment [5] and in experiment [6] was > 30 µM (inactive) throughout.
On to `O=C(Nc1cc(C(F)(F)F)cc(C(F)(F)F)c1)c1cc(Cl)ccc1O` [IMD-0354], for which the Kd in experiment [1], in experiment [2], in experiment [3], in experiment [4], in experiment [5] and in experiment [6] was > 30 µM (inactive) in each case.
For `CNC(=O)c1cccc2cc(Oc3ccnc4cc(OCC5(N)CC5)c(OC)cc34)ccc12` [LUCITANIB], the Kd in experiment [1], in experiment [2], in experiment [3], in experiment [4], in experiment [5] and in experiment [6] was > 30 µM (inactive) in each case.
Consider `CNC(=O)c1nn(C)c2c1C(C)(C)Cc1cnc(Nc3ccc(N4CCN(C)CC4)cc3)nc1-2` [MILCICLIB], for which the Kd is > 30 µM (inactive) in experiment [1]; 2.06 µM (active) in experiment [2]; > 30 µM (inactive) in experiment [3]; > 30 µM (inactive) in experiment [4]; > 30 µM (inactive) in experiment [5]; > 30 µM (inactive) in experiment [6].
For the compound `NC1(c2ccc(-c3nc4ccn5c(=O)[nH]nc5c4cc3-c3ccccc3)cc2)CCC1` [MK-2206], the Kd in experiment [1], in experiment [2], in experiment [3], in experiment [4], in experiment [5] and in experiment [6] was > 30 µM (inactive) each time.
Consider `CN(C[C@@H]1COCCO1)S(=O)(=O)Nc1ccc2ccc3ncc(-c4cnn(C)c4)cc3c(=O)c2c1` [MK-2461], for which the Kd in experiment [1], in experiment [2], in experiment [3], in experiment [4], in experiment [5] and in experiment [6] was > 30 µM (inactive) throughout.
`Cn1cc(-c2cnc3ccc4ccc(CS(=O)(=O)NCc5ccccn5)cc4c(=O)c3c2)cn1` [MK-8033]: the Kd in experiment [1], in experiment [2], in experiment [3], in experiment [4], in experiment [5] and in experiment [6] was > 30 µM (inactive) in each case.
Take `FC(F)(F)c1ccc(/C=C/c2nc(COc3ccc(CCCCn4ccnn4)cc3)co2)cc1` [MUBRITINIB]: the Kd in experiment [1], in experiment [2], in experiment [3], in experiment [4], in experiment [5] and in experiment [6] was > 30 µM (inactive) each time.
With `COc1ncc(-c2ccc3nccc(-c4ccnnc4)c3c2)cc1NS(=O)(=O)c1ccc(F)cc1F` [OMIPALISIB], the Kd in experiment [1], in experiment [2], in experiment [3], in experiment [4], in experiment [5] and in experiment [6] was > 30 µM (inactive) in each case.
Regarding `CCOc1cc2ncc(C#N)c(Nc3ccc(F)c(Cl)c3)c2cc1NC(=O)/C=C/CN(C)C` [PELITINIB], the Kd in experiment [1] is 2.09 µM (active); in experiment [2], 0.189 µM (active); in experiment [3] it was > 30 µM (inactive); in experiment [4] it was > 30 µM (inactive); in experiment [5], > 30 µM (inactive); in experiment [6], > 30 µM (inactive).
In the case of `CCCCCCCCCCCCCCCCCCOP(=O)([O-])OC1CC[N+](C)(C)CC1` [PERIFOSINE], the Kd in experiment [1], in experiment [2], in experiment [3], in experiment [4], in experiment [5] and in experiment [6] was > 30 µM (inactive) throughout.
As to `Cc1nc(Nc2n[nH]c3c2CN(C(=O)N[C@H](CN(C)C)c2ccccc2)C3(C)C)c2sccc2n1` [PF-03758309], the Kd was > 30 µM (inactive) in experiment [1]; 2.19 µM (active) in experiment [2]; > 30 µM (inactive) in experiment [3]; 1.23 µM (active) in experiment [4]; > 30 µM (inactive) in experiment [5]; > 30 µM (inactive) in experiment [6].
For the compound `CC(=O)NCC(=O)N1[C@@H]2CC[C@H]1c1ccc(Nc3ncc(C(F)(F)F)c(NC4CCC4)n3)cc12` [PF-03814735], the Kd in experiment [1] is 0.246 µM (active); in experiment [2], 0.766 µM (active); in experiment [3], > 30 µM (inactive); in experiment [4] it was 2.32 µM (active); in experiment [5] it was > 30 µM (inactive); in experiment [6], > 30 µM (inactive).
On to `Cc1cnc(NC(=O)Nc2cc(Br)c(C)cc2OC[C@@H]2CNCCO2)cn1` [RABUSERTIB], for which the Kd in experiment [1], in experiment [2], in experiment [3], in experiment [4], in experiment [5] and in experiment [6] was > 30 µM (inactive) in each case.
With `CNC(=O)c1cc(Oc2ccc(NC(=O)Nc3cc(C(C)(C)C)nn3-c3ccc4ncccc4c3)c(F)c2)ccn1` [REBASTINIB], the Kd was > 30 µM (inactive) in experiment [1]; > 30 µM (inactive) in experiment [2]; 1.28 µM (active) in experiment [3]; > 30 µM (inactive) in experiment [4]; > 30 µM (inactive) in experiment [5]; > 30 µM (inactive) in experiment [6].
